Data published in patent publication US9850216B2 (H. LEE MOFFITT CANCER CENTER AND RESEARCH INSTITUTE, INC., priority 2013, dated 2017).
Several values for one entry are separate records, joined by “and”; a condition that tells them apart may be missing. Equal entries are not always repeated. Structures can show the parent of a compound that is named as a salt. Where two headings read alike, the source gives them in different places.

What was measured:
ACK1 [1] = biological target: T1, ACK1 (Homo sapiens, UniProt Q07912); experiment: ACK1 ELISA: phosphorylation of AKT-derived peptide; format: biochemical
T1 sequence (Q07912 whole entry): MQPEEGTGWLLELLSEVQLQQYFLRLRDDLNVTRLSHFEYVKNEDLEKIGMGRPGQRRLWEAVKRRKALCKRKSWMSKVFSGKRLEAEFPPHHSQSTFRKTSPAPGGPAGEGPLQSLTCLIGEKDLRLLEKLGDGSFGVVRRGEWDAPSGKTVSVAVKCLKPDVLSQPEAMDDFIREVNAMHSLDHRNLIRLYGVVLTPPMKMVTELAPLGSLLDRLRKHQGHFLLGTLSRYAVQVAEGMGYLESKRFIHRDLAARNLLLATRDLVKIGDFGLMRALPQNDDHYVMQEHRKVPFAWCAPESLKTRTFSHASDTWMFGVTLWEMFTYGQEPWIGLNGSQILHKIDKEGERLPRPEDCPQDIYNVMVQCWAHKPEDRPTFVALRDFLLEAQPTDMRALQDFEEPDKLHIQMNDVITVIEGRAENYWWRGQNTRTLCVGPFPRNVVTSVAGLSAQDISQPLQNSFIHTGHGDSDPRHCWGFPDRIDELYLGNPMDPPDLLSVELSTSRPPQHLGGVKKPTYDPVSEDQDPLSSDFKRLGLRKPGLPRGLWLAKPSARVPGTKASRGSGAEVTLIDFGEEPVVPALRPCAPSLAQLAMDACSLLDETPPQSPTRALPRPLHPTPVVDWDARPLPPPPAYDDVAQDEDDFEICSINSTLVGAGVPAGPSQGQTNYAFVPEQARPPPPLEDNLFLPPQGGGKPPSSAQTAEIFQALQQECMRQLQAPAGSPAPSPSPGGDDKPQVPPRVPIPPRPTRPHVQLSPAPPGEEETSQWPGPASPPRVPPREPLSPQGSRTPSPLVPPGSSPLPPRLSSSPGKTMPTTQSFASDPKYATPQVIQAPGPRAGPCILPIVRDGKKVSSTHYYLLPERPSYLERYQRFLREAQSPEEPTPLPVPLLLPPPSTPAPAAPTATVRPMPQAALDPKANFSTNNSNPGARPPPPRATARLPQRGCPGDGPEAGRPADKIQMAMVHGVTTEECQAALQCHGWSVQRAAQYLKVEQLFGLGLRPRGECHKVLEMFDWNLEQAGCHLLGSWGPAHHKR

ACK1 [2] = biological target: T1, ACK1; experiment: 32P Hotspot assay (Reaction Biology), ACK1 IC50; format: biochemical
Procedure: 8 compounds were tested against […], ACK1, Src and ALK in various combinations. […] Reactions were carried out at 10 μM ATP.

[3] = 10 μM, Table 1, replicate values listed
[4] = 10 μM, Table 1, replicate values listed, read-out: % Inhibition at 10 μM (ELISA)
[5] = Table 1, unit inferred, (RB) = Reaction Biology, replicates listed, read-out: IC50
[6] = 10 μM, Table 2, library 9, read-out: % Inhibition @ 10 μM (ELISA)
[7] = 32P hotspot / enzymatic assay, read-out: ACK1 IC50
[8] = Table 1, nM, (RB) = Reaction Biology, replicates listed, read-out: IC50
[9] = Table 4, 10-dose, 10 μM ATP, read-out: Compound IC50 (M), ACK1
[10] = Table 3, 10-dose, 3-fold dilution from 10 μM, 10 μM ATP, read-out: Compound IC50* (M): ACK1
[11] = read-out: % Inhibition at 10 μM (ELISA), 10 μM, Table 1, replicate values listed
[12] = Table 2, read-out: IC50 (32P Hotspot assay)
[13] = 10 μM, Table 1, replicate values listed, hydrochloride

Row | Structure (SMILES) | % Inhibition at 10 μM (ELISA) (ACK1 [1]; [3]) | inhibition at 10 µM (ACK1 [1]; [4]) [%] | IC50 (ACK1 [2]; [5]) | other results
1 | O=C(O)C1CCN(c2ccc(Nc3ncc(Cl)c(NC[C@H]4CCCO4)n3)cc2)CC1 [DZ1-072, (R)-1-(4-(5-chloro-4-((tetrahydrofuran-2-yl)methylamino)pyrimidin-2-ylamino)phenyl)piperidine-4-carboxylic acid] | 95% | 96 | 91.6 nM | –
2 | Clc1cnc(Nc2ccc(N3CCOCC3)cc2)nc1NC[C@@H]1CCCO1 [DZ1-074] | – | – | 74.1 nM | –
3 | O=C(O)C1CCN(c2ccc(Nc3ncc(Cl)c(NCC4CCCO4)n3)cc2)CC1 (centres unmarked) [Compound 9e] | – | – | – | inhibition at 10 µM (ACK1 [1]; [6]): 93 ± 5.1%; IC50 (ACK1 [2]; [7]): 85 nM
4 | O=C(Nc1c(F)cccc1Cl)c1cnc(Nc2ccc(O)cc2)nc1NCC1CCCO1 (centres unmarked) [YL7-104-2, N-(2-chloro-6-fluorophenyl)-2-(4-hydroxyphenylamino)-4-((tetrahydrofuran-2-yl)methylamino)pyrimidine-5-carboxamide] | 76% | 85 | – | IC50 (ACK1 [2]; [8]): 54.4 nM
5 | CN1CCN(c2ccc(Nc3ncc(Cl)c(NCC4CCCO4)n3)cc2)CC1 (centres unmarked) [MH1-022-5, 5-chloro-N2-(4-(4-methylpiperazin-1-yl)phenyl)-N4-((tetrahydrofuran-2-yl)methyl)pyrimidine-2,4-diamine] | 91% | 90 | – | IC50 (ACK1 [2]; [9]): 54.4 nM
6 | O=C(O)C1CCN(c2ccc(Nc3ncc(Cl)c(NC[C@@H]4CCCO4)n3)cc2)CC1 [DZ1-082, (S)-1-(4-(5-chloro-4-((tetrahydrofuran-2-yl)methylamino)pyrimidin-2-ylamino)phenyl)piperidine-4-carboxylic acid] | 94% | 92 | 54.7 nM | –
7 | Brc1cnc(Nc2ccc(N3CCNCC3)cc2)nc1NCC1CCCO1 (centres unmarked) [YL9-167, 5-Bromo-N2-(4-(piperazin-1-yl)phenyl)-N4-((tetrahydrofuran-2-yl)methyl)pyrimidine-2,4-diamine TFA salt] | – | – | – | IC50 (ACK1 [2]; [10]): 94.7 nM
8 | O=C(O)CCC(=O)N1CCN(c2ccc(Nc3ncc(C(=O)Nc4c(F)cccc4Cl)c(NCC4CCCO4)n3)cc2)CC1 (centres unmarked) [YL9-163, 4-(4-(4-(5-(2-Chloro-6-fluorophenylcarbamoyl)-4-((tetrahydrofuran-2-yl)methylamino)pyrimidin-2-ylamino)phenyl)piperazin-1-yl)-4-oxobutanoic acid] | 93% | 85 | – | IC50 (ACK1 [2]; [10]): 28.4 nM
9 | Cl.O=C(Nc1c(F)cccc1Cl)c1cnc(Nc2ccc(N3CCC(C(=O)O)CC3)cc2)nc1NCC1CCCO1 (centres unmarked) [DZ1-096] | 98, 98% | 98 | 36.3 nM and 32.2 nM | IC50 (ACK1 [2]; [9]): 32.2 nM
10 | Clc1cnc(Nc2ccc(N3CCOCC3)cc2)nc1NC[C@H]1CCCO1 [DZ1-064] | – | – | 46.5 nM | –
11 | Clc1cnc(Nc2ccc(N3CCNCC3)cc2)nc1NCC1CCCO1 (centres unmarked) [Compound 9a] | – | – | – | % Inhibition @ 10 μM (ELISA) (ACK1 [1]; 10 μM, Table 2, library 9): 82 ± 12.7%; IC50 (ACK1 [2]; [7]): 81 nM
12 | O=C(Nc1c(F)cccc1Cl)c1cnc(Nc2ccc(N3CCNCC3)cc2)nc1NCC1CCCO1 (centres unmarked) [YL9-162, N-(2-chloro-6-fluorophenyl)-2-(4-(piperazin-1-yl)phenylamino)-4-((tetrahydrofuran-2-yl)methylamino)pyrimidine-5-carboxamide TFA salt] | – | – | 33.2 nM | % Inhibition at 10 μM (ELISA) (ACK1 [1]; 10 μM, Table 1, replicate values listed, TFA salt): 88%; inhibition at 10 µM (ACK1 [1]; [11]): 91%
13 | CN1CCN(c2ccc(Nc3ncc(C(=O)Nc4c(F)cccc4Cl)c(NCC4CCCO4)n3)cc2)CC1 (centres unmarked) [DZ1-114, N-(2-chloro-6-fluorophenyl)-2-(4-(4-methylpiperazin-1-yl)phenylamino)-4-((tetrahydrofuran-2-yl)methylamino)pyrimidine-5-carboxamide] | 95% | 99 | – | IC50 (ACK1 [2]; [10]): 48.3 nM
14 | Cl.Oc1ccc(Nc2ncc(Br)c(NCC3CCCO3)n2)cc1F (centres unmarked) [SK1-044, 4-(5-bromo-4-((tetrahydrofuran-2-yl)methylamino)pyrimidin-2-ylamino)-2-fluorophenol] | 89% and 63% and 28% and 38% | – | – | IC50 (ACK1 [2]; [8]): 299 nM
15 | Cc1cc(Nc2ncc(Br)c(NCC3CCCO3)n2)ccc1O.Cl (centres unmarked) [SK1-040, 4-(5-bromo-4-((tetrahydrofuran-2-yl)methylamino)pyrimidin-2-ylamino)-2-methylphenol] | 90% and 61% and 56% and 57% | – | – | IC50 (ACK1 [2]; [8]): 99.5 nM
16 | O=C(Nc1c(F)cccc1Cl)c1cnc(Nc2ccc(N3CCC(C(=O)O)CC3)cc2)nc1NCC1CCCO1 (centres unmarked) [Compound 9s] | – | – | – | inhibition at 10 µM (ACK1 [1]; [6]): 98%; IC50 (ACK1 [2]; [7]): 34 nM and 32 nM; IC50 (ACK1 [2]; [12]): 34.2 nM
17 | CCOC(=O)C1CCN(c2ccc(Nc3ncc(Cl)c(NCC4CCCO4)n3)cc2)CC1.Cl (centres unmarked) [YL8-047, Ethyl 1-(4-(5-chloro-4-((tetrahydrofuran-2-yl)methylamino)pyrimidin-2-ylamino)phenyl)piperidine-4-carboxylate hydrochloride] | – | 65 | – | % Inhibition at 10 μM (ELISA) (ACK1 [1]; [13]): 67% and 69%; IC50 (ACK1 [2]; [8]): 108 nM

Row | Structure (SMILES) | % Inhibition at 10 μM (ELISA) (ACK1 [1]; [3]) | inhibition at 10 µM (ACK1 [1]; [4]) [%] | IC50 (ACK1 [2]; [5]) | other results
18 | Cc1cc(Nc2ncc(Cl)c(Nc3ccccc3S(=O)(=O)C(C)C)n2)c(OC(C)C)cc1C1CCNCC1 [LDK, reference compound] | – | – | 88.7 nM | –
19 | Clc1cnc(Nc2ccc(C3CCNCC3)cc2)nc1NCC1CCCO1 (centres unmarked) [Compound 9f] | – | – | – | inhibition at 10 µM (ACK1 [1]; [6]): 79.5 ± 0.7%; IC50 (ACK1 [2]; [7]): 231 nM
20 | Oc1ccc(Nc2ncc(Cl)c(NCC3CCCO3)n2)cc1 (centres unmarked) [DZ1-120, 4-(5-chloro-4-((tetrahydrofuran-2-yl)methylamino)pyrimidin-2-ylamino)phenol] | 58% | 73 | 163 nM | IC50 (ACK1 [2]; [10]): 163 nM
21 | Cl.Oc1ccc(Nc2ncc(Br)c(NCC3CCCO3)n2)cc1 (centres unmarked) [SK1-028, 4-(5-Bromo-4-((tetrahydrofuran-2-yl)methylamino)pyrimidin-2-ylamino)phenol hydrochloride] | – | – | – | % Inhibition at 10 μM (ELISA) (ACK1 [1]; [13]): 59% and 81% and 85% and 65% and 67%; IC50 (ACK1 [2]; [10]): 164 nM
22 | Cl.O=C(Nc1c(F)cccc1Cl)c1cnc(Nc2ccc(C3CCNCC3)cc2)nc1NCC1CCCO1 (centres unmarked) [DZ1-089, N-(2-chloro-6-fluorophenyl)-2-(4-(piperidin-4-yl)phenylamino)-4-((tetrahydrofuran-2-yl)methylamino)pyrimidine-5-carboxamide] | 97, 97% | – | 53.3 nM | –
23 | CN1CCN(c2ccc(Nc3ncc(Br)c(NCC4CCCO4)n3)cc2)CC1 (centres unmarked) [DZ1-122, 5-bromo-N2-(4-(4-methylpiperazin-1-yl)phenyl)-N4-((tetrahydrofuran-2-yl)methyl)pyrimidine-2,4-diamine] | 91% | 95 | 48 nM | –
24 | Brc1cnc(Nc2ccc(C3CCNCC3)cc2)nc1NCC1CCCO1 (centres unmarked) [Compound 9k] | – | – | – | inhibition at 10 µM (ACK1 [1]; [6]): 84.5 ± 0.7%; IC50 (ACK1 [2]; [12]): 169 nM
25 | Clc1cnc(Nc2ccc(N3CCOCC3)cc2)nc1NCC1CCCO1 (centres unmarked) [Compound 9c] | – | – | – | IC50 (ACK1 [2]; [12]): 67.5 nM
26 | Cc1cnc(Nc2ccc(O)cc2)nc1NCC1CCCO1 (centres unmarked) [DZ1-116, 4-(5-methyl-4-((tetrahydrofuran-2-yl)methylamino)pyrimidin-2-ylamino)phenol] | 15% and 5% | – | – | melting point: 145.4 °C (dec.)
27 | CC(C)Sc1ccccc1Nc1nc(Cl)ncc1C(=O)Nc1c(F)cccc1Cl [YL7-040, 2-Chloro-N-(2-chloro-6-fluorophenyl)-4-(2-(isopropylthio)phenylamino)pyrimidine-5-carboxamide] | – | 0 | – | melting point: 202 to 205 °C
28 | COc1ccc(Nc2ncc(C(=O)Nc3c(F)cccc3Cl)c(Nc3ccccc3S(C)(=O)=O)n2)cc1 [YL7-037, N-(2-chloro-6-fluorophenyl)-2-(4-methoxyphenylamino)-4-(2-(methylsulfonyl)phenylamino)pyrimidine-5-carboxamide] | 4% and 0% | – | – | melting point: 267 °C (dec.)
29 | Cl.NS(=O)(=O)c1ccc(Nc2ncc(Br)c(NCC3CCCO3)n2)cc1 (centres unmarked) [YL8-003-3, 4-(5-Bromo-4-((tetrahydrofuran-2-yl)methylamino)pyrimidin-2-ylamino)benzenesulfonamide hydrochloride] | – | 56 | – | % Inhibition at 10 μM (ELISA) (ACK1 [1]; [13]): 68% and 63%; melting point: 214 °C (dec.)
30 | Cl.Oc1ccc(Nc2ncc(Br)c(NCC3CCCO3)n2)cc1Cl (centres unmarked) [YL7-172-1, 4-(5-Bromo-4-((tetrahydrofuran-2-yl)methylamino)pyrimidin-2-ylamino)-2-chlorophenol hydrochloride] | – | – | – | % Inhibition at 10 μM (ELISA) (ACK1 [1]; [13]): 75% and 55% and 35%; melting point: 193 °C (dec.)
31 | CC(C)Sc1ccccc1Nc1nc(Nc2ccc(O)cc2)ncc1C(=O)Nc1c(F)cccc1Cl [YL7-045-4, N-(2-chloro-6-fluorophenyl)-2-(4-hydroxyphenylamino)-4-(2-(isopropylthio)phenylamino)pyrimidine-5-carboxamide] | – | 0 | – | melting point: 232 °C (dec.)
32 | O=C(O)CCCc1ccc(Nc2ncc(Cl)c(NCC3CCCO3)n2)cc1 (centres unmarked) [NT1-025, 4-(4-(5-Chloro-4-((tetrahydrofuran-2-yl)methylamino)pyrimidin-2-ylamino)phenyl)butanoic acid] | 65% | – | – | inhibition at 10 µM (ACK1 [1]; [11]): 61%; melting point: 180 °C (dec.)
33 | CCS(=O)(=O)c1ccccc1Nc1nc(Nc2ccc(O)cc2)ncc1C(=O)Nc1c(F)cccc1Cl [YL7-058-2, N-(2-chloro-6-fluorophenyl)-4-(2-(ethylsulfonyl)phenylamino)-2-(4-hydroxyphenylamino)pyrimidine-5-carboxamide] | 68% and 43% | – | – | melting point: 201 °C (dec.)
